The text below walks through data of ChEMBL document CHEMBL5715954, “Silencing c-Myc translation as a therapeutic strategy through targeting PI3Kδ and CK1ε in hematological malignancies” (Blood, 2017).

Common to all, as to design: scale not given: the % may be the effect or the level left
Test [1] has as its target Tyrosine-protein kinase JAK1 (Homo sapiens) (UniProt P23458). The experiment in a line: Inhibition of human JAK1 assessed as enzyme activity at 1 uM using poly[Glu:Tyr] (4:1) as substrate preincubated for 20 mins followed by [gamma-33P]-ATP addition and measured after 120 mins by radiometric Hot-SpotSM Kinase assay relative to control.
The target in test [2] is Mitogen-activated protein kinase kinase kinase 20 (Homo sapiens) (UniProt Q9NYL2). The experiment in a line: Inhibition of human ZAK/MLTK assessed as enzyme activity at 1 uM using myelin basic protein as substrate preincubated for 20 mins followed by [gamma-33P]-ATP addition and measured after 120 mins by radiometric Hot-SpotSM Kinase assay relative to control.
Sequence of Mitogen-activated protein kinase kinase kinase 20 (Homo sapiens) (Q9NYL2 2-800 limits assumed): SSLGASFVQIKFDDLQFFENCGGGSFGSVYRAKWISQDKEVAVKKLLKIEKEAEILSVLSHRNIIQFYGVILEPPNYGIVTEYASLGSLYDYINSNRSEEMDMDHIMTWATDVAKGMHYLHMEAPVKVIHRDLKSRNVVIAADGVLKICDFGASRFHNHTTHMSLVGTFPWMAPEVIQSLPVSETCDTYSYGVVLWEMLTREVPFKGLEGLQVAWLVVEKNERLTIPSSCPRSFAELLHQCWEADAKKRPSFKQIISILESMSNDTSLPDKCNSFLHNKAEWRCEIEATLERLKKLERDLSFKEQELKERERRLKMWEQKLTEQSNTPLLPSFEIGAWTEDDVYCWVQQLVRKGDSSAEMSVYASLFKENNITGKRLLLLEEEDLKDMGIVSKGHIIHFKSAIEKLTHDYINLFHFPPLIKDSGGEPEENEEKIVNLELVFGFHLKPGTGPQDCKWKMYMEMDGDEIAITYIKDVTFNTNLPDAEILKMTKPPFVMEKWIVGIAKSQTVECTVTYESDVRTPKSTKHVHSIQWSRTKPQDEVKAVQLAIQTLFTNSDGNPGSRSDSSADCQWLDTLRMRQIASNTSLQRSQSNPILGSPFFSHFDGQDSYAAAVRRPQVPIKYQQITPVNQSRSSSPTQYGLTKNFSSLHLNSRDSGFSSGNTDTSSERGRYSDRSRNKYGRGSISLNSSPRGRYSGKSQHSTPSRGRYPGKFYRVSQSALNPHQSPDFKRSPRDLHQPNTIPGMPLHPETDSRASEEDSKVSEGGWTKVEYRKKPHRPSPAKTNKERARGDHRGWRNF
The target of test [3] is T1, Serine/threonine-protein kinase Nek8 (Homo sapiens) (UniProt Q86SG6).
T1 sequence (whole entry): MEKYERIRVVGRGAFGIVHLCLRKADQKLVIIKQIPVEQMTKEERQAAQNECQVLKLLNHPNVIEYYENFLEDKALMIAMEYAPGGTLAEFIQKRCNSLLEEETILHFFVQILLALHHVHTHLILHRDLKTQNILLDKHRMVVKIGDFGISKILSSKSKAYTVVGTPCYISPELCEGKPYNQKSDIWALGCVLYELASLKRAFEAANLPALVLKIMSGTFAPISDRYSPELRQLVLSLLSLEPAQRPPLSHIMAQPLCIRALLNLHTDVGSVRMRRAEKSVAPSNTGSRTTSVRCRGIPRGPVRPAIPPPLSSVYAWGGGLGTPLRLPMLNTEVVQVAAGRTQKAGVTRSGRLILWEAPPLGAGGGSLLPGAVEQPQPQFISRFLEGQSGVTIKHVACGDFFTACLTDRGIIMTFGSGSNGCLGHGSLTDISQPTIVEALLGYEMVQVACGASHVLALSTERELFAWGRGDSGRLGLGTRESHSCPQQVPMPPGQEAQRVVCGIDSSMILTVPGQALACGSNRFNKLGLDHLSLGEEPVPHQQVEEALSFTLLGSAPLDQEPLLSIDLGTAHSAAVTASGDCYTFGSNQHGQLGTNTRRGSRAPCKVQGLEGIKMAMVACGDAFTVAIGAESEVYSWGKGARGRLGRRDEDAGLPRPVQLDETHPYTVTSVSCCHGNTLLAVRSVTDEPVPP
The test can be described thus: Inhibition of human NEK8 assessed as enzyme activity at 1 uM using myelin basic protein as substrate preincubated for 20 mins followed by [gamma-33P]-ATP addition and measured after 120 mins by radiometric Hot-SpotSM Kinase assay relative to control.

The target of test [4] is T2, Beta-adrenergic receptor kinase 1 (Homo sapiens) (UniProt P25098).
T2 sequence (whole entry): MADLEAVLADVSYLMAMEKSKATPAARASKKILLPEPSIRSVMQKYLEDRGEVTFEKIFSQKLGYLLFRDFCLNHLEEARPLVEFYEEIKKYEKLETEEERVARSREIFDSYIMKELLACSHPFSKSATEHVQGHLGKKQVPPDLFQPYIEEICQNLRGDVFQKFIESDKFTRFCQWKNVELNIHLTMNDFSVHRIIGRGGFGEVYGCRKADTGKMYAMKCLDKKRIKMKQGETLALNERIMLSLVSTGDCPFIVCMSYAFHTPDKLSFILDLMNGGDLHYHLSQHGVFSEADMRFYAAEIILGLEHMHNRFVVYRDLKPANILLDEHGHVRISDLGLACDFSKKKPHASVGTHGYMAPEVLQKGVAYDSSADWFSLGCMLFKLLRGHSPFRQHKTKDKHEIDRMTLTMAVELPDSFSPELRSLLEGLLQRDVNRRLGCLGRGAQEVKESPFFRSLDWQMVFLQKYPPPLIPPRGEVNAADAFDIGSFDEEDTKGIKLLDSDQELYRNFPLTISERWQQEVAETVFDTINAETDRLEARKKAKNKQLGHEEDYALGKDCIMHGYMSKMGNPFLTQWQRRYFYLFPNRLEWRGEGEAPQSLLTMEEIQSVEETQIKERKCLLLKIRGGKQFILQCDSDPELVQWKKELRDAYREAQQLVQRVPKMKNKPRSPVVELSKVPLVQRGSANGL
The experiment in a line: Inhibition of human GRK2 assessed as enzyme activity at 1 uM using casein as substrate preincubated for 20 mins followed by [gamma-33P]-ATP addition and measured after 120 mins by radiometric Hot-SpotSM Kinase assay relative to control.

Test [5] has as its target Protein-tyrosine kinase 2-beta (Homo sapiens) (UniProt Q14289). The experiment in a line: Inhibition of human PYK2 assessed as enzyme activity at 1 uM using poly[Glu:Tyr] (4:1) as substrate preincubated for 20 mins followed by [gamma-33P]-ATP addition and measured after 120 mins by radiometric Hot-SpotSM Kinase assay relative to control.
Test [6] addresses T3, Dual serine/threonine and tyrosine protein kinase (Homo sapiens) (UniProt Q6XUX3).
T3 sequence (whole entry): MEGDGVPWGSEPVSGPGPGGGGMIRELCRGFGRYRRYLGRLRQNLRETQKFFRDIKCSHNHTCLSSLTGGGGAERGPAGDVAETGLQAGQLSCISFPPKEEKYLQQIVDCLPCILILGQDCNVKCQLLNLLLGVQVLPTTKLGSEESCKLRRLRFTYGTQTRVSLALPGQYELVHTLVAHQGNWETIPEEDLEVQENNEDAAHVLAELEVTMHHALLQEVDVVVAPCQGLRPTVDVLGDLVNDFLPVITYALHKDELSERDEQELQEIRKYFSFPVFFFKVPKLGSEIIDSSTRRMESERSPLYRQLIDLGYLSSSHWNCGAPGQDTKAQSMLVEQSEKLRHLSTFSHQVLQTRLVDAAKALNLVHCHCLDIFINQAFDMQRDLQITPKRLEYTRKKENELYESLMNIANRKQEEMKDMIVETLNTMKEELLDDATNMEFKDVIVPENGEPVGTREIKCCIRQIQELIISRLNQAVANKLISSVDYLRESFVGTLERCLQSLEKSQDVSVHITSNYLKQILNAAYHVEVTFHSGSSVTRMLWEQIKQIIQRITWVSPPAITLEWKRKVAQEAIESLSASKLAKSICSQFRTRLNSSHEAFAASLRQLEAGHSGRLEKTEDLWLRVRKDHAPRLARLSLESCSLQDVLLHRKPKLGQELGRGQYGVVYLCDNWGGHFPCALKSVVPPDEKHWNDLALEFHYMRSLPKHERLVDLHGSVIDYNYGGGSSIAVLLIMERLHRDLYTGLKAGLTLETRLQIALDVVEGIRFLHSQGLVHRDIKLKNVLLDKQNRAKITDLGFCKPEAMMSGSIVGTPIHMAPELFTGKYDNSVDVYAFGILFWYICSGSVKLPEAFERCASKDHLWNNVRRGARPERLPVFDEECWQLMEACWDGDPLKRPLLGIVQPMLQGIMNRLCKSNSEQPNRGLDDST
The experiment in a line: Inhibition of human RIPK5 assessed as enzyme activity at 1 uM using myelin basic protein as substrate preincubated for 20 mins followed by [gamma-33P]-ATP addition and measured after 120 mins by radiometric Hot-SpotSM Kinase assay relative to control.

Sequence of Tyrosine-protein kinase JAK1 (Homo sapiens) (P23458 whole entry): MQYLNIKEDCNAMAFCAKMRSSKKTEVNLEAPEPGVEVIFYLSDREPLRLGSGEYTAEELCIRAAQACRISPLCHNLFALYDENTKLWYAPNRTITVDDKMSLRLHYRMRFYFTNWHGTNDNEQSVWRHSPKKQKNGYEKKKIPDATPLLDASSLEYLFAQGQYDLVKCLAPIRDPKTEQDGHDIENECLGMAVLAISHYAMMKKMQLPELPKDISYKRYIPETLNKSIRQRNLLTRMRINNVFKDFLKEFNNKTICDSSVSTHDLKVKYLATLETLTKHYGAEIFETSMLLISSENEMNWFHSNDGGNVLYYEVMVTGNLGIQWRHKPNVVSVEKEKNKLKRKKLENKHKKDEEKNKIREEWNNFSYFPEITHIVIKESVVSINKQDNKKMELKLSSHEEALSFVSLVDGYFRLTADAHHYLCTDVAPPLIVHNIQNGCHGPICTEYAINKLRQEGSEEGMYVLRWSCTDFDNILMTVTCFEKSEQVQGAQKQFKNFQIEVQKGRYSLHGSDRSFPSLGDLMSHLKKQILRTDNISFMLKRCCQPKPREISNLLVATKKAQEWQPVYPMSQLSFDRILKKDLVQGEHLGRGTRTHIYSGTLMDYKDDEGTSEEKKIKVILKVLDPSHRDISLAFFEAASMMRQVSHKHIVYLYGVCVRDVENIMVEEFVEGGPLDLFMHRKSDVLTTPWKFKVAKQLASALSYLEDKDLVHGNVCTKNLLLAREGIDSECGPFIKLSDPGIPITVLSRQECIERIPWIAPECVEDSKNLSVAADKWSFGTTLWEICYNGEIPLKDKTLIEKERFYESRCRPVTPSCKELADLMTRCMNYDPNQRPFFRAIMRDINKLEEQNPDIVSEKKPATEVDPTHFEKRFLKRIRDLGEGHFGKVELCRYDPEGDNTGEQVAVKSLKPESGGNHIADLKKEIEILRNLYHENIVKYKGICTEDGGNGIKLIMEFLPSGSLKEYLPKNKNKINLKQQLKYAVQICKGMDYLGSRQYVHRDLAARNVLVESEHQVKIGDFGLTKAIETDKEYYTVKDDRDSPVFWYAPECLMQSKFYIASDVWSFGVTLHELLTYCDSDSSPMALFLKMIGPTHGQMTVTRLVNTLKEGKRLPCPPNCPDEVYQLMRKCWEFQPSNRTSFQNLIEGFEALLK
Sequence of Protein-tyrosine kinase 2-beta (Homo sapiens) (Q14289 whole entry, looked up): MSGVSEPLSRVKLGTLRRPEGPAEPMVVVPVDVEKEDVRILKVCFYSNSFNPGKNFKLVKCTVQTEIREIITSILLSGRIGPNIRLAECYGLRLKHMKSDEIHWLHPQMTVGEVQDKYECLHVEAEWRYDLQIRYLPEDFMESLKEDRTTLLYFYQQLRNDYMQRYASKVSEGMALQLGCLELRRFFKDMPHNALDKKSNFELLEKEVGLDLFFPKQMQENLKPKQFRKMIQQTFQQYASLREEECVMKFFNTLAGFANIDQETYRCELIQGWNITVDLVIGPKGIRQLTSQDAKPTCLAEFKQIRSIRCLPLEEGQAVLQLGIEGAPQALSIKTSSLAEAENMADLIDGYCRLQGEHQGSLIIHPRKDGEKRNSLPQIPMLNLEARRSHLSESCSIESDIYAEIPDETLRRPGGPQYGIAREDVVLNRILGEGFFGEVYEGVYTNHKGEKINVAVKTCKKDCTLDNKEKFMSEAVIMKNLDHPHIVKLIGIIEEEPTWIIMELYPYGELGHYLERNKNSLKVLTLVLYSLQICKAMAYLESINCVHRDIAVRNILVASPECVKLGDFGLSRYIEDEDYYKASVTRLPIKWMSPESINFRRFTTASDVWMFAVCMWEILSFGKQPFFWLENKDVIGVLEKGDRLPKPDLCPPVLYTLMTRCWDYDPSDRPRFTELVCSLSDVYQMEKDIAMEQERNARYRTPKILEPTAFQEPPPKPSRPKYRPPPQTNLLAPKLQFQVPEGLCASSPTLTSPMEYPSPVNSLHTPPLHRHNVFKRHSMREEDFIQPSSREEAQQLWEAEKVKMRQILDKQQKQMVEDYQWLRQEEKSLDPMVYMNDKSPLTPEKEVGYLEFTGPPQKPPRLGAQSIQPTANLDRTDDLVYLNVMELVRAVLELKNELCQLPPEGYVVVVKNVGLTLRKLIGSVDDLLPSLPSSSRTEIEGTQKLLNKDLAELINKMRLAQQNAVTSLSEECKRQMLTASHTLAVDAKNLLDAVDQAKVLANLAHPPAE

On to `C[C@H](Nc1ncnc2nc[nH]c12)c1cc2cccc(Cl)c2c(=O)n1-c1ccccc1`, for which the Activity came out at 84.6% in test [1]; 88.7% in test [2]; 95% in test [3]; 94.2% in test [4]; 99.5% in test [5]; 96% in test [6].
For `CC[C@H](Nc1ncnc2[nH]cnc12)c1nc2cccc(F)c2c(=O)n1-c1ccccc1`, the Activity in test [1] was 85.6%; in test [2] it was 96.5%; in test [3], 94.3%; in test [4], 93.9%; in test [5], 101%; in test [6], 90%.
Regarding `CC(C)Oc1ccc(-c2nn([C@@H](C)c3oc4ccc(F)cc4c(=O)c3-c3cccc(F)c3)c3ncnc(N)c23)cc1F` [UMBRALISIB], the Activity came to 83.4% in test [1]; 92.3% in test [2]; 91% in test [3]; 94.5% in test [4]; 102% in test [5]; 90.7% in test [6].
